14 compounds from ChEMBL document CHEMBL1201862, “PubChem BioAssay data set” (2004) can be followed below.

Each structure is given as a SMILES string.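 Protocol summary: plate cells (96-well), add compound at 5 concentrations, incubate 48 h, interpolate endpoints linearly. Abbreviation: GI50, concentration required for 50% inhibition of growth.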 Calls of active or inactive are those of the source. No stated cut-off is given here; in the data, active = GI50 up to about 1.1 µM and inactive = higher.

Among the test systems are SF-268; NCI-H23; KM12; 786-0; NCI-H460; A549; SF-295; OVCAR-8; HCT-116; HCT-15; COLO 205; MOLT-4; HT-29; SK-MEL-28; LOX IMVI; NCI-H522.
What all share (assay): growth of human tumour cells (NCI), 48 h

As to `CC1(O)CC2C(CC1SCCO)C2(C)C` (stereo not drawn), the GI50 in the assay with SF-268, in the assay with NCI-H23, with KM12, in the assay on 786-0, in the assay on NCI-H460 and with A549 was > 100 µM (inactive) throughout. The GI50 in the assay on SF-295 was > 100 µM (inactive); in the assay on OVCAR-8, > 100 µM (inactive); in the assay on HCT-116, > 100 µM (inactive); in the assay with HCT-15, greater than 100 µM; in the assay with COLO 205, > 100 µM (inactive); in the assay with MOLT-4, > 100 µM (inactive). For the same compound, the GI50 in the assay on HT-29 and with SK-MEL-28 was > 100 µM (inactive) each time.

For `O=C1CCCCC/C=C2/CC[C@H](Sc3ccccc3)[C@@H]12`, the GI50 in the assay on SF-268 was 88.5 µM (inactive); in the assay with NCI-H23, 83 µM (inactive); in the assay with KM12, 87.1 µM (inactive); with 786-0, > 100 µM (inactive); in the assay with NCI-H460, 94.4 µM (inactive); in the assay on A549 it was 34.3 µM (inactive). The GI50 in the assay with SF-295 was 40.6 µM (inactive); in the assay on OVCAR-8, 74.1 µM (inactive); with HCT-116 it was 52.4 µM (inactive); in the assay with HCT-15 it was greater than 100 µM; in the assay with COLO 205, > 100 µM (inactive); with MOLT-4 it was 31.4 µM (inactive). For the same compound, the GI50 is > 100 µM (inactive) in the assay with HT-29, > 100 µM (inactive) in the assay with SK-MEL-28 and 43 µM (inactive) in the assay with LOX IMVI.

For the compound `[O-][S+]1c2ccc(Cl)cc2CC(SSC2Cc3cc(Cl)ccc3[S+]([O-])c3ccccc32)c2ccccc21` (stereo not drawn), the GI50 with SF-268, in the assay on NCI-H23, in the assay with KM12, in the assay with 786-0, in the assay with NCI-H460 and with A549 was > 100 µM (inactive) in each case. The GI50 in the assay on SF-295, in the assay on OVCAR-8, with NCI-H522, in the assay with HCT-116, in the assay on COLO 205 and in the assay with MOLT-4 was > 100 µM (inactive) in each case. In addition, the GI50 in the assay on HT-29, in the assay on SK-MEL-28 and in the assay on LOX IMVI was > 100 µM (inactive) in each case.

Turning to `IC[P+]1(c2ccccc2)CCCC1`, the GI50 was 39.4 µM (inactive) in the assay with NCI-H23; 32.5 µM (inactive) with KM12; > 100 µM (inactive) in the assay on 786-0; 31.9 µM (inactive) in the assay on NCI-H460; 28.7 µM (inactive) in the assay with A549; 40.1 µM (inactive) with SF-295. For the same compound, the GI50 with OVCAR-8 is 32.4 µM (inactive); in the assay on NCI-H522, 8.36 µM (inactive); with HCT-116 it was 49.8 µM (inactive); in the assay with HCT-15, 4.15 µM; with COLO 205, 14 µM (inactive); in the assay with MOLT-4, 72.9 µM (inactive). For the same compound, the GI50 is 37.3 µM (inactive) with HT-29, 50 µM (inactive) in the assay on SK-MEL-28 and 26.7 µM (inactive) with LOX IMVI.

Take `Cn1cc(C2(C)CC(C)(C)c3c2n(C)c2ccccc32)c2ccccc21` (stereo not drawn): the GI50 was > 100 µM (inactive) with SF-268; 95.3 µM (inactive) in the assay on NCI-H23; 94 µM (inactive) in the assay with KM12; > 100 µM (inactive) with 786-0; > 100 µM (inactive) in the assay with NCI-H460; > 100 µM (inactive) in the assay with A549. In addition, the GI50 was > 100 µM (inactive) in the assay with SF-295; > 100 µM (inactive) with OVCAR-8; 40.3 µM (inactive) with NCI-H522; greater than 100 µM in the assay on HCT-15; > 100 µM (inactive) in the assay on COLO 205; 42.4 µM (inactive) with MOLT-4. In addition, the GI50 in the assay with HT-29 is 49.8 µM (inactive); in the assay on SK-MEL-28 it was > 100 µM (inactive); in the assay with LOX IMVI it was > 100 µM (inactive).

On to `COc1ccccc1NC(=O)C1=C(C)NC(C)=C(C(=O)Nc2ccccc2OC)C1c1ccccc1F`, for which the GI50 in the assay on SF-268 is > 100 µM (inactive); with NCI-H23 it was > 100 µM (inactive); in the assay on KM12, 66.7 µM (inactive); with 786-0, > 100 µM (inactive); with NCI-H460, 67.9 µM (inactive); with A549, 57.4 µM (inactive). The GI50 in the assay on SF-295 was > 100 µM (inactive); with OVCAR-8 it was > 100 µM (inactive); in the assay on HCT-116 it was 59 µM (inactive); in the assay with HCT-15, 98.6 µM; in the assay with COLO 205, > 100 µM (inactive); in the assay on MOLT-4, 49.2 µM (inactive). The figures for the GI50 with HT-29, in the assay with SK-MEL-28 and in the assay on LOX IMVI were 91.4 µM (inactive), > 100 µM (inactive) and > 100 µM (inactive), respectively.

Take `O=C(CN1CCCCC1)N1CCc2c([nH]c3ccccc23)C1c1cccnc1` (stereo not drawn): the GI50 with SF-268, in the assay on NCI-H23, in the assay on KM12, in the assay on 786-0, in the assay on NCI-H460 and with A549 was > 100 µM (inactive) each time. Besides, the GI50 with SF-295 is > 100 µM (inactive); with OVCAR-8, > 100 µM (inactive); with NCI-H522 it was > 100 µM (inactive); in the assay on HCT-116, > 100 µM (inactive); in the assay with HCT-15 it was greater than 100 µM; in the assay on MOLT-4, > 100 µM (inactive). The GI50 in the assay on HT-29, with SK-MEL-28 and with LOX IMVI was > 100 µM (inactive) in each case.

For the compound `C=CCCCCC1CCC2CCC(CCCCC=C)N12` (stereo not drawn), the GI50 in the assay on SF-268 is 14.7 µM (inactive); with KM12, 15.8 µM (inactive); in the assay on 786-0 it was 13.7 µM (inactive); in the assay on NCI-H460, 12.4 µM (inactive); in the assay on A549, 16.1 µM (inactive); with SF-295 it was 13.4 µM (inactive). For the same compound, the GI50 in the assay with OVCAR-8 is 17.7 µM (inactive); in the assay with NCI-H522 it was 14.2 µM (inactive); in the assay with HCT-116 it was 14.2 µM (inactive); in the assay with HCT-15, 6.3 µM; in the assay on COLO 205 it was 16.2 µM (inactive); in the assay on MOLT-4, 15 µM (inactive). The GI50 is 9.38 µM (inactive) in the assay with HT-29 and 17.7 µM (inactive) with SK-MEL-28.

For `Cc1ccc(/C=C2\CCCC\C2=N\O)cc1`, the GI50 with SF-268 is 51.2 µM (inactive); in the assay on NCI-H23, 47.3 µM (inactive); in the assay with 786-0, 48.5 µM (inactive); in the assay on NCI-H460, 54 µM (inactive); in the assay with A549, 71.8 µM (inactive); in the assay on SF-295 it was 74.3 µM (inactive). Besides, the GI50 in the assay on OVCAR-8 is 59.3 µM (inactive); with HCT-116, 45.9 µM (inactive); in the assay on HCT-15, 44.6 µM; in the assay on COLO 205, 81.5 µM (inactive); with MOLT-4, > 10 µM (inactive); with HT-29 it was 51.8 µM (inactive). The GI50 was > 100 µM (inactive) in the assay on SK-MEL-28 and 58.7 µM (inactive) in the assay with LOX IMVI.

For the compound `c1ccc(OCCSCCCCCCCCCCSCCOc2ccccc2)cc1`, the GI50 in the assay with SF-268 is > 100 µM (inactive); in the assay on NCI-H23, > 100 µM (inactive); with KM12, > 100 µM (inactive); in the assay on 786-0, 50.4 µM (inactive); in the assay with NCI-H460, 37.8 µM (inactive); in the assay on A549, 31.6 µM (inactive). Also, the GI50 with SF-295 was 30.7 µM (inactive); in the assay on OVCAR-8, 61.2 µM (inactive); with NCI-H522, > 100 µM (inactive); in the assay with HCT-15, greater than 100 µM; in the assay on COLO 205, > 100 µM (inactive); with MOLT-4, > 100 µM (inactive). In addition, the GI50 in the assay with SK-MEL-28 and in the assay with LOX IMVI was > 100 µM (inactive) each time.

Take `CC12CCC(C)(c3cc(O)c(O)cc31)c1cc(O)c(O)cc12`: the GI50 in the assay with SF-268 is 18.2 µM (inactive); in the assay with NCI-H23 it was 27 µM (inactive); with KM12, 17.1 µM (inactive); in the assay on 786-0, 14.7 µM (inactive); in the assay with NCI-H460, 18 µM (inactive); with A549, 29.6 µM (inactive). Moreover, the GI50 in the assay on SF-295 is 22 µM (inactive); in the assay on OVCAR-8 it was 19.7 µM (inactive); with NCI-H522 it was 2.29 µM (inactive); in the assay with HCT-15 it was 13.7 µM; in the assay with COLO 205, 16.5 µM (inactive); in the assay with MOLT-4, 15.1 µM (inactive). Besides, the GI50 in the assay with HT-29 was 14.7 µM (inactive); in the assay with SK-MEL-28, 16.4 µM (inactive); in the assay on LOX IMVI it was 16.4 µM (inactive).

As to `C=C1C(=O)OC2C1CC[C@H](C)C1(O)C(O)CC(=O)[C@@]21C` (stereo partly drawn), the GI50 was 23.3 µM (inactive) in the assay with SF-268; 18.7 µM (inactive) in the assay on NCI-H23; 17.3 µM (inactive) in the assay with KM12; 24.2 µM (inactive) in the assay with 786-0; 36.5 µM (inactive) in the assay with NCI-H460; 31 µM (inactive) in the assay on A549. Moreover, the GI50 is 24.8 µM (inactive) with SF-295; 17.4 µM (inactive) in the assay on OVCAR-8; 15 µM (inactive) in the assay with HCT-116; 16.3 µM (inactive) in the assay on COLO 205; 14.4 µM (inactive) in the assay with MOLT-4; 20.4 µM (inactive) with HT-29. The GI50 in the assay with SK-MEL-28 was 13.6 µM (inactive).

For `[N-]=[N+]=NC(CI)c1cn([C@H]2C[C@H](O)[C@@H](CO)O2)c(=O)[nH]c1=O` (stereo partly drawn), the GI50 in the assay with NCI-H23 was 90.4 µM (inactive); in the assay with KM12, > 100 µM (inactive); in the assay on 786-0, 63.2 µM (inactive); with NCI-H460, 29.8 µM (inactive); with A549, 41.5 µM (inactive); with SF-295 it was > 100 µM (inactive). Moreover, the GI50 is > 100 µM (inactive) in the assay on OVCAR-8; > 100 µM (inactive) in the assay with NCI-H522; > 100 µM (inactive) with HCT-116; greater than 100 µM with HCT-15; > 100 µM (inactive) in the assay on COLO 205; > 100 µM (inactive) in the assay with MOLT-4. Also, the GI50 in the assay with HT-29, in the assay with SK-MEL-28 and in the assay on LOX IMVI was > 100 µM (inactive) each time.

Consider `COc1cc2c(c(OC)c1OC)-c1ccc(SC)c(=O)cc1[C@@H](NC(=O)c1ccc(F)cc1)CC2`, for which the GI50 in the assay with SF-268 is 0.0455 µM (active); with NCI-H23, 0.0417 µM (active); in the assay on KM12, 0.0217 µM (active); in the assay with 786-0, 0.0488 µM (active); in the assay with NCI-H460, 0.0344 µM (active); in the assay on SF-295 it was 0.0327 µM (active). Moreover, the GI50 is 0.053 µM (active) with OVCAR-8; < 0.01 µM (active) in the assay on NCI-H522; 0.0416 µM (active) in the assay on HCT-116; 0.0206 µM (active) in the assay with COLO 205; 0.0601 µM (active) in the assay with MOLT-4; 0.0318 µM (active) in the assay with HT-29. For the same compound, the GI50 is 15.2 µM (inactive) with SK-MEL-28 and 0.0501 µM (active) in the assay on LOX IMVI.
